Drawing on ChEMBL document CHEMBL5053539, “THC shows activity against cultured Plasmodium falciparum” (Bioorg Med Chem Lett, 2021), this text covers IC50 for three molecules.

Assay [1] has as its system Plasmodium falciparum. The experiment in a line: Antiplasmodial activity against chloroquine-sensitive Plasmodium falciparum NF54. Type of assay: functional, organism-based.
The next assay concerns Hemozoin. The experiment in a line: Inhibition of Beta-hematin in Plasmodium falciparum cells assessed as hemozoin formation after 32 hrs by NP40 detergent-mediated assay.
The subject of assay [2] is Plasmodium falciparum. The experiment in a line: Antiplasmodial activity against multidrug-resistant Plasmodium falciparum K1. Type of assay: functional, organism-based.

Each structure is given as a SMILES string.

For orientation: IC50 means the concentration that gives 50% inhibition. With `C=C(C)[C@@H]1CCC(C)=C[C@H]1c1c(O)cc(CCCCC)cc1O` [CANNABIDIOL], the values for the IC50 with Plasmodium falciparum [1] and in the assay on Hemozoin were 4.1 µM and 51.1 µM, respectively.
Turning to `CCN(CC)CCCC(C)Nc1ccnc2cc(Cl)ccc12` (stereo unspecified) [CHLOROQUINE], in the assay with Hemozoin, the IC50 turned out to be 16.8 µM.
Consider `CCCCCc1cc(O)c2c(c1)OC(C)(C)[C@@H]1CCC(C)=C[C@@H]21` [DRONABINOL], for which the IC50 in the assay with Plasmodium falciparum [1] was found to be 0.79 µM; in the assay with Hemozoin, 11.3 µM; in the assay on Plasmodium falciparum [2], 0.72 µM.
